Assay results taken from patent US20250255851A1, “SOLID FORMS OF AN ALDOSTERONE SYNTHASE INHIBITOR” (Boehringer Ingelheim International GmbH, priority 2024, published 2025).

Legend:
Assay type in all cases: physicochemical
[1] = Stability of crystalline form (resistance to change in crystalline form)
Text: However, these solvate of Compound 1 are generally not as stable (for example, resistant to change in crystalline form) as Form I and Form X. This lack of stability generally requires special processing and storage conditions for the solvates, thus making them less desirable as a component of a solid form of a pharmaceutical preparation. […] Alternatively, processes for preparing Compound 1 may involve formation of a crystalline solvate form of Compound 1 as an intermediate step prior to final preparation of Form I or Form X. For example, the purification and/or isolation of the crystalline solvates of Compound 1 may be used to remove impurities prior to conversion of the crystalline solvates to Form I and/or Form X using methods described herein.
Despite the lower stability of the other crystalline forms of Compound 1 (Forms II, Ill, IV, VI, VII and IX), the other crystalline forms are still useful as intermediates to prepare Form I and/or Form X as described herein.

[2] = Storage stability of solid form samples at controlled temperature and relative humidity; conditions: at least 9 months at 25° and 60% and at least 6 months at 40° and 75% relative humidity; both storage conditions
Protocol: Samples of Form I were maintained for at least 9 months at 25°, and 60% and at least 6 months at 40° and 75% relative humidity.
Samples of Form X were maintained for at least 9 months at 25°, and 60% and at least 6 months at 40° and 75% relative humidity.

[3] = Biopharmaceutics Classification System (BCS) classification
[4] = Dynamic Vapor Sorption (DVS) water sorption isotherm
Protocol: Water sorption isotherms are determined using a dynamic vapor sorption system (Advantage 1, DVS, London, UKDVS Intrinsic Plus, Surface Measurement Systems, Allentown, PA). Approximately 5-10 mg of solid is weighed into a tared aluminum pan. […] Equilibration criteria are dm/dt of 0.002% over 5 minutes or 360 minutes at a specified % RH. Each sample is equilibrated at each RH step for at least 60 min, and equilibrium is assumed if weight increase is less than 0.1% within one minute, and the maximum duration on each RH is 6 hours. Therefore, each sample is held at a given RH for 1 to 6 hours depending on how fast the equilibrium is reached. Exemplary DVS of the compounds of the invention are found in the Figures.

## C[C@]1(CO)Cc2ncn(-c3ccc(C#N)c(Cl)c3)c2C(=O)O1 [Form I, 2-chloro-4-[(6R)-6-(hydroxymethyl)-6-methyl-4-oxo-3H,4H,6H,7H-pyrano[3,4-d]imidazol-3-yl]benzonitrile]
[1]; compared with Form II, Form III and the crystalline solvate forms
  relative stability of crystalline form (resistance to change in form): more stable
[2]
  impurity levels after storage: no increase in impurity levels
  particle size distribution after storage: no change in particle sized distribution
  solid form after storage: no change in solid form
  water content after storage: no increase in water content
[3]
  BCS class: class 1
[4]; at 95% Rh during the second cycle, 25° C.
  water uptake (DVS): about 0.4 % (wt.)
[4]; second DVS cycle
  hygroscopicity (from DVS plot): non-hygroscopic

## C[C@]1(CO)Cc2ncn(-c3ccc(C#N)c(Cl)c3)c2C(=O)O1 [Form VI, 2-chloro-4-[(6R)-6-(hydroxymethyl)-6-methyl-4-oxo-3H,4H,6H,7H-pyrano[3,4-d]imidazol-3-yl]benzonitrile]
[4]; DVS cycles, 25° C.
  solid form transformation during DVS (solvent replaced by water): transformed to a mixture of Form I and Form III
[4]; sharp descending step when 80% RH was reached
  mass stability over humidity range (DVS profile): stable over a wide humidity range from RH=0 to the 80%

## C[C@]1(CO)Cc2ncn(-c3ccc(C#N)c(Cl)c3)c2C(=O)O1 [Form X, 2-chloro-4-[(6R)-6-(hydroxymethyl)-6-methyl-4-oxo-3H,4H,6H,7H-pyrano[3,4-d]imidazol-3-yl]benzonitrile]
[4]; at 90% Rh during the second cycle, 25° C.
  water uptake (DVS): about 0.07%

## C[C@]1(CO)Cc2ncn(-c3ccc(C#N)c(Cl)c3)c2C(=O)O1 [Form IV, 2-chloro-4-[(6R)-6-(hydroxymethyl)-6-methyl-4-oxo-3H,4H,6H,7H-pyrano[3,4-d]imidazol-3-yl]benzonitrile]
[1]; at elevated temperature and/or under high humidity
  conversion of crystalline form: convert to Form I and/or Form X
